Measurements published in PubChem BioAssay (NCI).
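Growth conditions: 96-well plates. Treatment: test compound, 48 hours, 5 concentrations. Analysis: linear interpolation between bracketing concentrations; unreached endpoints set to highest concentration. GI50 is the concentration that inhibits growth by half. TGI denotes the concentration required for complete inhibition of growth.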

Experiments:
Experiment in all cases: growth of human tumour cells (NCI), 48 h
MOLT-4 leukemia = system: MOLT-4 leukemia
SW-620 colon = system: SW-620 colon
ACHN renal = system: ACHN renal
SK-OV-3 ovarian = system: SK-OV-3 ovarian
M14 melanoma = system: M14 melanoma
MDA-MB-231 breast = system: MDA-MB-231 breast
NCI/ADR-RES ovarian = system: NCI/ADR-RES ovarian
LOX IMVI melanoma = system: LOX IMVI melanoma
IGROV1 ovarian = system: IGROV1 ovarian
RPMI-8226 leukemia = system: RPMI-8226 leukemia
EKVX NSCLC = system: EKVX NSCLC
TK-10 renal = system: TK-10 renal
OVCAR-5 ovarian = system: OVCAR-5 ovarian
HOP-92 NSCLC = system: HOP-92 NSCLC
CAKI-1 renal = system: CAKI-1 renal
MALME-3M melanoma = system: MALME-3M melanoma
OVCAR-4 ovarian = system: OVCAR-4 ovarian
SK-MEL-2 melanoma = system: SK-MEL-2 melanoma
SF-268 CNS = system: SF-268 CNS
MDA-MB-435 = system: MDA-MB-435
MCF7 breast = system: MCF7 breast
SF-295 CNS = system: SF-295 CNS
NCI-H23 lung = system: NCI-H23 lung
UACC-257 melanoma = system: UACC-257 melanoma
HL-60(TB) leukemia = system: HL-60(TB) leukemia
OVCAR-8 ovarian = system: OVCAR-8 ovarian
KM12 colon = system: KM12 colon
UACC-62 melanoma = system: UACC-62 melanoma
OVCAR-3 ovarian = system: OVCAR-3 ovarian
HCC-2998 colon = system: HCC-2998 colon
SK-MEL-5 melanoma = system: SK-MEL-5 melanoma
A498 renal = system: A498 renal
BT-549 breast = system: BT-549 breast
SN12C renal = system: SN12C renal
SNB-19 CNS = system: SNB-19 CNS
HCT-116 colon = system: HCT-116 colon
SNB-75 CNS = system: SNB-75 CNS
UO-31 renal = system: UO-31 renal
786-0 renal = system: 786-0 renal
NCI-H522 lung = system: NCI-H522 lung
HS 578T breast = system: HS 578T breast
NCI-H226 lung = system: NCI-H226 lung
U251 CNS = system: U251 CNS
HOP-62 NSCLC = system: HOP-62 NSCLC
RXF 393 renal = system: RXF 393 renal
NCI-H460 lung = system: NCI-H460 lung
PC-3 prostate = system: PC-3 prostate
DU-145 prostate = system: DU-145 prostate
SF-539 CNS = system: SF-539 CNS
A549 NSCLC = system: A549 NSCLC
COLO 205 colon = system: COLO 205 colon
HT29 colon = system: HT29 colon
K-562 leukemia = system: K-562 leukemia
HCT-15 colon = system: HCT-15 colon
SR leukemia = system: SR leukemia
CCRF-CEM leukemia = system: CCRF-CEM leukemia
T-47D breast = system: T-47D breast
SK-MEL-28 melanoma = system: SK-MEL-28 melanoma

## C=C1CCC2C3(C)COC(c4ccccc4Cl)OC3CCC2(C)C1/C=C/C1=CCOC1=O (stereo unspecified)
MOLT-4 leukemia
  GI50: 3.77 µM
  TGI: > 100 µM
SW-620 colon
  GI50: 25 µM
  TGI: > 100 µM
ACHN renal
  GI50: 38.7 µM
  TGI: > 100 µM
SK-OV-3 ovarian
  GI50: > 100 µM
  TGI: > 100 µM
M14 melanoma
  GI50: 89.6 µM
  TGI: > 100 µM
MDA-MB-231 breast
  GI50: > 100 µM
  TGI: > 100 µM
NCI/ADR-RES ovarian
  GI50: 7.74 µM
  TGI: > 100 µM
LOX IMVI melanoma
  GI50: 6.77 µM
  TGI: > 100 µM
IGROV1 ovarian
  GI50: > 100 µM
  TGI: > 100 µM
RPMI-8226 leukemia
  GI50: 1.16 µM
  TGI: 9.97 µM
EKVX NSCLC
  GI50: 2.82 µM
  TGI: > 100 µM
TK-10 renal
  GI50: 19 µM
  TGI: > 100 µM
OVCAR-5 ovarian
  GI50: > 100 µM
  TGI: > 100 µM
HOP-92 NSCLC
  GI50: 1.6 µM
  TGI: > 100 µM
CAKI-1 renal
  GI50: 4.08 µM
  TGI: > 100 µM
MALME-3M melanoma
  GI50: 17.2 µM
  TGI: > 100 µM
OVCAR-4 ovarian
  GI50: 4.47 µM
  TGI: > 100 µM
SK-MEL-2 melanoma
  GI50: 77.7 µM
  TGI: > 100 µM
SF-268 CNS
  GI50: > 100 µM
  TGI: > 100 µM
MDA-MB-435
  GI50: 9.89 µM
  TGI: > 100 µM
MCF7 breast
  GI50: 4.38 µM
  TGI: > 100 µM
SF-295 CNS
  GI50: 3.48 µM
  TGI: > 100 µM
NCI-H23 lung
  GI50: 6.18 µM
  TGI: > 100 µM
UACC-257 melanoma
  GI50: 9.09 µM
  TGI: > 100 µM
HL-60(TB) leukemia
  GI50: 4.97 µM
  TGI: > 100 µM
OVCAR-8 ovarian
  GI50: 13.8 µM
  TGI: > 100 µM
KM12 colon
  GI50: 6.71 µM
  TGI: > 100 µM
UACC-62 melanoma
  GI50: 11.2 µM
  TGI: > 100 µM
OVCAR-3 ovarian
  GI50: 26.2 µM
  TGI: > 100 µM
HCC-2998 colon
  GI50: 21.1 µM
  TGI: > 100 µM
SK-MEL-5 melanoma
  GI50: 3.78 µM
  TGI: 21 µM
A498 renal
  GI50: > 100 µM
  TGI: > 100 µM
BT-549 breast
  GI50: 3.55 µM
  TGI: 72.9 µM
SN12C renal
  GI50: > 100 µM
  TGI: > 100 µM
SNB-19 CNS
  GI50: > 100 µM
  TGI: > 100 µM
HCT-116 colon
  GI50: 4.48 µM
  TGI: > 100 µM
SNB-75 CNS
  GI50: > 100 µM
  TGI: > 100 µM
UO-31 renal
  GI50: 6.95 µM
  TGI: > 100 µM
786-0 renal
  GI50: > 100 µM
  TGI: > 100 µM
NCI-H522 lung
  GI50: 4.24 µM
  TGI: > 100 µM
HS 578T breast
  GI50: > 100 µM
  TGI: > 100 µM
NCI-H226 lung
  GI50: 14.3 µM
  TGI: > 100 µM
U251 CNS
  GI50: 24 µM
  TGI: > 100 µM
HOP-62 NSCLC
  GI50: > 100 µM
  TGI: > 100 µM
RXF 393 renal
  GI50: > 100 µM
  TGI: > 100 µM
NCI-H460 lung
  GI50: 5.96 µM
  TGI: > 100 µM
PC-3 prostate
  GI50: 3.17 µM
  TGI: > 100 µM
DU-145 prostate
  GI50: > 100 µM
  TGI: > 100 µM
SF-539 CNS
  GI50: 24 µM
  TGI: > 100 µM
A549 NSCLC
  GI50: 4.97 µM
  TGI: > 100 µM
COLO 205 colon
  GI50: 17.9 µM
  TGI: > 100 µM
HT29 colon
  GI50: 5.43 µM
  TGI: > 100 µM
K-562 leukemia
  GI50: 3.61 µM
  TGI: > 100 µM
HCT-15 colon
  GI50: 6.6 µM
  TGI: > 100 µM
SR leukemia
  GI50: 3.97 µM
  TGI: > 100 µM
CCRF-CEM leukemia
  GI50: 5.33 µM
  TGI: > 100 µM
T-47D breast
  GI50: 3.39 µM
  TGI: > 100 µM
SK-MEL-28 melanoma
  GI50: > 100 µM
  TGI: > 100 µM
